Laboratory results: patent publication US6787342B2, “Paste formulations” (Merial Limited, priority 2000, dated 2004)

What was measured:
[1] = test system: Cooperia onocophora and Nematodirus; details: against Cooperia onocophora and Nematodirus; cited from earlier work
[2] = Carr Index (compressibility/flowability) of unmilled polymorphic forms; type: physicochemical
Description: After crystallization and before micronization, the Carr Index of B form is lower than 10 (in %). The Can Index CI is defined as [formula] where P is the packed bulk density (g cm^−3), L is the loose bulk density (g cm 3). CI is also known as a compressibility index. A low figure for Cl corresponds to a high degree of flowability. The Carr Index way be calculated from Mercury Intrusion Porosimetry or measured by Tap-Tap.

[3] = Thermodynamic stability of polymorphic forms (DSC, Burger's rule); type: physicochemical; details: monotropic system
Description: When heated, form A transforms to form B depending on the heating rate.
Therefore, the transition A→B is under kinetic control as usual in case of polymorphism. The transition from A to B may also be followed by XRay under heating (FIG. 12).

Compound | ivermectin plasma level required for efficacy [1] | Carr Index ([2]; after crystallization and before micronization) | flow characteristics ([2]; compared with Polymorph A) | thermodynamic stability of polymorphic form [3] | thermodynamic stability of polymorphic form ([3]; listed as B form)
22,23-dihydro avermectin Bla/Blb [ivermectin] | 3 to 4 ng/mL | – | – | – | –
CC1(C)OC(=O)C(OCC2CC2)=C1c1ccc(S(C)(=O)=O)cc1 [Polymorph B, 3-(cyclopropylmethoxy)-4-[4-(methylsulfonyl)phenyl]-5,5-dimethyl-5H-furan-2-one] | – | lower than 10% | better flow characteristics than Polymorph A | thermodynamically more stable than Polymorph A | the most stable form
